Measurements reported in the supplement of paper PMC10627819.

Tests used:
[1] = tested on: S. aureus Newman; experiment: fitness (endpoint OD595 vs no drug) (fraction); higher = more growth
How it was run: (§1)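 At 37 °C, bacteria in TSB, LB Lennox or CY were grown in 384-well plates from a starting OD595 of 0.01. OD595 was measured every 30 min for 14 h, with the first reading used as background. Fitness is the optical density at the switch to stationary phase as a fraction of the robust mean of no-drug control wells, capped at 1.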

[2] = tested on: S. aureus DSM 20231; experiment: as above
How it was run: as §1

[3] = tested on: B. subtilis 168; experiment: as above
How it was run: as §1

[4] = tested on: S. pneumoniae D39V; experiment: Bliss interaction score (quartile over a dose matrix) (fitness difference); higher = more antagonism (negative = synergy)
How it was run: (§2)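 Quartiles summarise the Bliss score over technical, biological and donor/recipient replicates, where the score is observed minus expected fitness under a product model. Expected fitness uses single-drug values inferred from combination data. Fitness is OD595 at entry into stationary phase over the plate's robust no-drug mean, capped at 1.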

[5] = tested on: S. aureus Newman; experiment: as above
How it was run: as §2

[6] = tested on: S. aureus DSM 20231; experiment: as above
How it was run: as §2

[7] = tested on: B. subtilis 168; experiment: as above
How it was run: as §2

[8] = first compound 0.125 µg/mL, partner 0.0156 µg/mL
[9] = first compound 0.125 µg/mL, partner 0.0312 µg/mL
[10] = first compound 0.125 µg/mL, partner 0.0625 µg/mL
[11] = first compound 0.25 µg/mL, partner 0.0156 µg/mL
[12] = first compound 0.25 µg/mL, partner 0.0312 µg/mL
[13] = first compound 0.25 µg/mL, partner 0.0625 µg/mL
[14] = first compound 0.5 µg/mL, partner 0.0312 µg/mL
[15] = first compound 0.5 µg/mL, partner 0.0625 µg/mL
[16] = first compound 0.125 µg/mL, partner 12.5 µg/mL
[17] = first compound 0.125 µg/mL, partner 25 µg/mL
[18] = first compound 0.125 µg/mL, partner 50 µg/mL
[19] = first compound 0.25 µg/mL, partner 12.5 µg/mL
[20] = first compound 0.25 µg/mL, partner 25 µg/mL
[21] = first compound 0.5 µg/mL, partner 12.5 µg/mL
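For Bliss interaction score (quartile over a dose matrix) in this document: first quartile when negative (synergy) and third quartile when positive (antagonism).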

`CC[C@H]1OC(=O)[C@H](C)[C@@H](O[C@H]2C[C@@](C)(OC)[C@@H](O)[C@H](C)O2)[C@H](C)[C@@H](O[C@@H]2O[C@H](C)C[C@H](N(C)C)[C@H]2O)[C@](C)(O)C[C@@H](C)CN(C)[C@H](C)[C@@H](O)[C@]1(C)O` [Azithromycin] + Cc1onc(-c2ccccc2)c1C(=O)N[C@@H]1C(=O)N2[C@@H]1SC(C)(C)[C@@H]2C(=O)O [Oxacillin] showed a fitness [1, 8] of 0.723, a fitness [1, 9] of 0.715 and a fitness [1, 10] of 0.624. The fitness [1, 11] was 0.726, the fitness [1, 12] was 0.725 and the fitness [1, 13] was 0.622. It also gave a fitness [1, 14] of 0.365, a fitness [1, 15] of 0.31 and a fitness [2, 8] of 0.722. It also gave a fitness [2, 9] of 0.617, a fitness [2, 10] of 0.482 and a fitness [2, 11] of 0.786. The fitness [2, 12] was 0.62, the fitness [2, 13] was 0.54 and the fitness [2, 14] was 0.183. It also gave a fitness [2, 15] of 0.379, a fitness ([3]; first compound 0.25 µg/mL, partner 0.002 µg/mL) of 0.881 and a fitness ([3]; first compound 0.25 µg/mL, partner 0.004 µg/mL) of 0.851. It also gave a fitness ([3]; first compound 0.25 µg/mL, partner 0.0078 µg/mL) of at least 1, a fitness ([3]; first compound 0.25 µg/mL, partner 0.008 µg/mL) of 0.824 and a fitness ([3]; first compound 0.25 µg/mL, partner 0.0155 µg/mL) of 0.964. It also gave a fitness ([3]; first compound 0.25 µg/mL, partner 0.031 µg/mL) of 0.983, a fitness ([3]; first compound 0.5 µg/mL, partner 0.002 µg/mL) of 0.87 and a fitness ([3]; first compound 0.5 µg/mL, partner 0.004 µg/mL) of 0.818. The fitness ([3]; first compound 0.5 µg/mL, partner 0.0078 µg/mL) was 0.888, the fitness ([3]; first compound 0.5 µg/mL, partner 0.008 µg/mL) was 0.842 and the fitness ([3]; first compound 0.5 µg/mL, partner 0.0155 µg/mL) was 0.887. It also gave a fitness ([3]; first compound 0.5 µg/mL, partner 0.031 µg/mL) of 0.908, a fitness ([3]; first compound 0.5 µg/mL, partner 0.075 µg/mL, one replicate) of 0.582 and a fitness ([3]; first compound 0.5 µg/mL, partner 0.15 µg/mL, one replicate) of 0.037. The fitness ([3]; first compound 0.5 µg/mL, partner 0.3 µg/mL, one replicate) was 0.0266, the fitness ([3]; first compound 1 µg/mL, partner 0.002 µg/mL) was 0.535 and the fitness ([3]; first compound 1 µg/mL, partner 0.004 µg/mL) was 0.503. For the same molecule, the fitness ([3]; first compound 1 µg/mL, partner 0.008 µg/mL) was 0.453, the fitness ([3]; first compound 1 µg/mL, partner 0.075 µg/mL, one replicate) was 0.318 and the fitness ([3]; first compound 1 µg/mL, partner 0.15 µg/mL, one replicate) was 0.0238. For the same molecule, the fitness ([3]; first compound 1 µg/mL, partner 0.3 µg/mL, one replicate) was 0.0264, the fitness ([3]; first compound 2 µg/mL, partner 0.075 µg/mL, one replicate) was 0.0267 and the fitness ([3]; first compound 2 µg/mL, partner 0.15 µg/mL, one replicate) was 0.016. The fitness ([3]; first compound 2 µg/mL, partner 0.3 µg/mL, one replicate) was 0.0201, the Bliss interaction score [4] was 0.0949 and the Bliss interaction score [5] was 0.0591. The Bliss interaction score [6] was -0.0461 and the Bliss interaction score [7] was 0.0492.

Molecule `CC[C@H]1OC(=O)[C@H](C)[C@@H](O[C@H]2C[C@@](C)(OC)[C@@H](O)[C@H](C)O2)[C@H](C)[C@@H](O[C@@H]2O[C@H](C)C[C@H](N(C)C)[C@H]2O)[C@](C)(O)C[C@@H](C)CN(C)[C@H](C)[C@@H](O)[C@]1(C)O` [Azithromycin] + O=C(O[C@@H]1Cc2c(O)cc(O)cc2O[C@@H]1c1cc(O)c(O)c(O)c1)c1cc(O)c(O)c(O)c1 [EGCG] has a fitness [1, 16] of 0.759, a fitness [1, 17] of 0.706 and a fitness [1, 18] of 0.696. For the same molecule, the fitness [1, 19] was 0.726, the fitness [1, 20] was 0.715 and the fitness ([1]; first compound 0.25 µg/mL, partner 50 µg/mL) was 0.658. It also gave a fitness [1, 21] of 0.545, a fitness ([1]; first compound 0.5 µg/mL, partner 25 µg/mL) of 0.522 and a fitness ([1]; first compound 0.5 µg/mL, partner 50 µg/mL) of 0.484. The fitness [2, 16] was 0.703, the fitness [2, 17] was 0.693 and the fitness [2, 18] was 0.614. The fitness [2, 19] was 0.761, the fitness [2, 20] was 0.695 and the fitness ([3]; first compound 0.25 µg/mL, partner 6.25 µg/mL) was 0.859. The fitness [3, 19] was 0.508, the fitness [3, 20] was 0.246 and the fitness ([3]; first compound 0.5 µg/mL, partner 6.25 µg/mL) was 0.912. It also gave a fitness [3, 21] of 0.461, a fitness ([3]; first compound 1 µg/mL, partner 25 µg/mL) of 0.0462 and a fitness ([3]; first compound 2 µg/mL, partner 6.25 µg/mL, one replicate) of 0.387. It also gave a fitness ([3]; first compound 2 µg/mL, partner 12.5 µg/mL, one replicate) of 0.229, a fitness ([3]; first compound 2 µg/mL, partner 25 µg/mL, one replicate) of 0.201 and a Bliss interaction score [4] of 0.043. The Bliss interaction score [5] was -0.0553, the Bliss interaction score [6] was -0.13 and the Bliss interaction score [7] was -0.0827.
